Test results published in patent US20240158457A1, “INTERLEUKIN-18 RECEPTOR BINDING POLYPEPTIDES AND USES THEREOF” (Medikine, Inc., priority 2022, published 2024).
Where a SMILES comes first, the peptide text is derived from it. Bridges are numbered along the chain shown (N, C = ends).

Experiments:
[1] = target: T1, IL-18 Binding Protein (IL-18BP) (Homo sapiens, UniProt O95998); test: Direct binding ELISA for IL-18BP; conditions: C-terminally biotinylated forms of peptides; at up to 100 nM IL-18BP
T1 construct: purchased ACROBiosystems (Acro); R&D Systems ILP-H5253; 119-BP
T1 sequence (O95998 31-194): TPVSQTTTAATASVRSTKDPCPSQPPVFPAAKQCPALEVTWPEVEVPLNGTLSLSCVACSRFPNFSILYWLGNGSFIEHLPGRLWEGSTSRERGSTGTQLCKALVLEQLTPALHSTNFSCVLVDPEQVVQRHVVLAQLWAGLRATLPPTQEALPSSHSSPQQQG
Procedure: Binding of synthetic monomer peptides to IL-18 Binding Protein (IL-18BP) was measured using a direct binding ELISA. Briefly, 96-well ELISA plates were coated with NeutrAvidin (NA) at 5 μg per well in PBS, washed, then blocked with PBS containing 1% BSA. Wells were washed and representative peptides, synthesized with a C-terminal biotin were diluted to 300 nM in assay buffer and added to the NA coated wells. Wells were washed and serial dilutions starting at 100 nM of IL-18R subunits, IL-18BP from either of two sources (Acro #ILP-H5253 and R&D #119-BP), and control IgG Fc fusions) were added to the wells and incubated for 1 hr at 4° C. Then plates were washed and goat anti-human IgG Fc-HRP (Southern Biotech #2048-05) detection antibody was added for 1 hr. Wells were developed with TMB for 5-15 min and the enzyme reaction was stopped with a H2SO4 solution.

IL-18R = target: T2, IL-18R (Homo sapiens, UniProt O95256+Q13478); test: HEK-BLUE IL18R reporter assay for IL-18BP/IL-18 interaction (agonist activity with and without IL-18BP); assay type: cell-based; conditions: IL-18BP up to 100 nM; 30 nM dimer 10; FIG. 22B
T2 construct: host or cells: HEK293 (HEK-BLUE IL-18 reporter cell line)
T2 sequence (Q13478 19-541): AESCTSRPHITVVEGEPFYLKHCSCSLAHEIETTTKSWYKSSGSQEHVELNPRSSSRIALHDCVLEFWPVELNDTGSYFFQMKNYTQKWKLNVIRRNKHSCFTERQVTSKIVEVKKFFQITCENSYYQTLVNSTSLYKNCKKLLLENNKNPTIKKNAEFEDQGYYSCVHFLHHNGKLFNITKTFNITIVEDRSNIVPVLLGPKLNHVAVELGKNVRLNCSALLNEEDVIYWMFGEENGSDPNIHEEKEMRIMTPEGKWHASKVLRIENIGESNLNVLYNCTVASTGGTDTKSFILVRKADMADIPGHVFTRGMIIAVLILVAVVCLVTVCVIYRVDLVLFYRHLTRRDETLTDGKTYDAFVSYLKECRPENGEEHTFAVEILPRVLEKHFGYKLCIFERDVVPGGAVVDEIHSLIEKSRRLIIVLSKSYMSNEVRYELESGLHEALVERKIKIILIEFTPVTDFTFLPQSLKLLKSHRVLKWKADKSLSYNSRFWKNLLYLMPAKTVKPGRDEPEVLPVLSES
T2 sequence (O95256 20-599): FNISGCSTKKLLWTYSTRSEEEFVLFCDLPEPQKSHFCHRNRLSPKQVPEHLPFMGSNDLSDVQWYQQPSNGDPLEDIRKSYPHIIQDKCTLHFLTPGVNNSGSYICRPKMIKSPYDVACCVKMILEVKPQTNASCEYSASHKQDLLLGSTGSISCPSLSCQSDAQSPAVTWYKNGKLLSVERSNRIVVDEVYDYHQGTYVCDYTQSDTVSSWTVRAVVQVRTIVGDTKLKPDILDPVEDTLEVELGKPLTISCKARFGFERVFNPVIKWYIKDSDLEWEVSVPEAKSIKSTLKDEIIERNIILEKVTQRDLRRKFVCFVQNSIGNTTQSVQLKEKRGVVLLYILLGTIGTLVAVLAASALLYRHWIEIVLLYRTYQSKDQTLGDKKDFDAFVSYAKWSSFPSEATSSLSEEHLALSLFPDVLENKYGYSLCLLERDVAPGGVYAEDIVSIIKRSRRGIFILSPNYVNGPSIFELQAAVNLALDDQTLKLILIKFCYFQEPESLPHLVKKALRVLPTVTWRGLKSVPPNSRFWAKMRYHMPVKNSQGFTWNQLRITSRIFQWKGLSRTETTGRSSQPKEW
Source text: IL-18 is negatively regulated by a decoy receptor called IL-18 binding protein (IL-18BP), a secreted antagonist that binds IL-18 with extremely high affinity. HEK-BLUE™ IL-18 reporter cell line (InvivoGen #hkb-hmil 18, California, USA) was used to determine the impact of heterodimer peptides composed of IL-18Ra and IL-18Rb binding peptides on the IL-18BP/IL-18 interaction. The IL-18 Reporter assay, as described in detail in Example 2, was used to investigate this interaction with the following modifications.
A serial dilution (7-point, 10-fold) of IL-18BP Fc fusion (Acro #ILP-H5253) starting at 2 μM (20-fold final concentration) was prepared in test medium in a v-bottom polypropylene 96-well plate. Human recombinant IL-18 (R&D Systems #9124-IL-050/CF) and a representative peptide agonist were prepared at 30 pM and 600 nM respectively (both at 20-fold final concentration and at approximately their respective EC70s). […] Absorbance signal at 630 nm was then measured on a plate reader. Half maximal inhibition concentration (IC50) was calculated based on a variable slope and four parameter analysis using GraphPad Prism software. When no inhibition was measured the data points were connected without a curve fit. Absorbance readings were converted to percent total of signal span, for IL-18 and peptide agonist respectively, and graphed as NF-κB reporter activity (% max).

## CC[C@H](C)[C@@H]1NC(=O)[C@H](CCC(=O)O)NC(=O)[C@H](CO)NC(=O)[C@H](CC(C)C)NC(=O)[C@H](Cc2c[nH]cn2)NC(=O)[C@H](CC(=O)O)NC(=O)[C@H](CO)NC(=O)[C@H](CC(C)C)NC(=O)[C@H](Cc2c[nH]c3ccccc23)NC(=O)[C@H](CC(N)=O)NC(=O)[C@@H]2CCCN2C(=O)[C@@H](NC(=O)CNC(=O)CN)CSSC[C@@H](C(=O)NCC(=O)NCC(=O)O)NC(=O)[C@H](Cc2c[nH]c3ccccc23)NC1=O [Dimer 5C09, GGCPNWLSDHLSEIWCGG] (H-GGCPNWLSDHLSEIWCGG-OH; disulfide 3-16; N-terminus and C-terminus assumed)
[1]
  binding to IL-18BP: did not exhibit binding

## CC[C@H](C)[C@H](NC(=O)[C@@H]1CSSC[C@H](NC(=O)[C@H](CCC(=O)O)NC(=O)[C@H](Cc2ccccc2)NC(=O)[C@H](Cc2ccccc2)NC(=O)CNC(=O)CNC(=O)[C@H](CO)NC(=O)CNC(=O)CCc2cn(CC[C@H](NC(=O)[C@H](CC(C)C)NC(=O)[C@@H]3CSSC[C@H](NC(=O)[C@H](CC(C)C)NC(=O)CNC(=O)CN)C(=O)N[C@@H](Cc4c[nH]c5ccccc45)C(=O)N[C@@H](Cc4ccc(O)cc4)C(=O)N[C@@H](Cc4ccccc4)C(=O)NCC(=O)NCC(=O)N[C@@H]([C@@H](C)O)C(=O)N[C@@H](C(C)C)C(=O)N[C@@H](CCCNC(=N)N)C(=O)NCC(=O)N4CCC[C@H]4C(=O)N3)C(N)=O)nn2)C(=O)N[C@@H](Cc2ccccc2)C(=O)N[C@@H](Cc2ccc(O)cc2)C(=O)N[C@@H](CO)C(=O)N2CCC[C@H]2C(=O)NCC(=O)N[C@@H](Cc2c[nH]cn2)C(=O)N[C@@H](CCC(=O)O)C(=O)N[C@@H](Cc2c[nH]c3ccccc23)C(=O)N1)C(=O)N1CCC[C@H]1C(=O)N[C@@H](CO)C(=O)NCC(=O)NCC(N)=O [Dimer 10]
IL-18R
  inhibition of agonist activity by IL-18BP: does not inhibit

## GGELCWRPFSFVDCEEGG [alpha Synthetic Fla Consensus Construct]
[1]
  binding to IL-18BP: did not exhibit binding

## CC(C)C[C@H](NC(=O)CNC(=O)CN)C(=O)N[C@H]1CSSC[C@@H](C(=O)N[C@@H](CC(C)C)C(=O)NCC(=O)NCC(=O)O)NC(=O)[C@@H]2CCCN2C(=O)CNC(=O)[C@H](CCCNC(=N)N)NC(=O)[C@H](C(C)C)NC(=O)[C@H]([C@@H](C)O)NC(=O)CNC(=O)CNC(=O)[C@H](Cc2ccccc2)NC(=O)[C@H](Cc2ccc(O)cc2)NC(=O)[C@H](Cc2c[nH]c3ccccc23)NC1=O [Family 2 synthetic construct, GGLCWYFGGTVRGPCLGG] (H-GGLCWYFGGTVRGPCLGG-OH; disulfide 4-15; N-terminus and C-terminus assumed)
[1]
  binding to IL-18BP: did not exhibit binding
